# Measured values as given in patent US8236963B2, “Tricyclic spiro derivatives as CRTH2 modulators” (Merck Serono SA, priority 2005, dated 2012).
# Molecular target: T1, CRTH2 (Homo sapiens, UniProt Q9Y5Y4)
# T1 sequence (Q9Y5Y4 1-395): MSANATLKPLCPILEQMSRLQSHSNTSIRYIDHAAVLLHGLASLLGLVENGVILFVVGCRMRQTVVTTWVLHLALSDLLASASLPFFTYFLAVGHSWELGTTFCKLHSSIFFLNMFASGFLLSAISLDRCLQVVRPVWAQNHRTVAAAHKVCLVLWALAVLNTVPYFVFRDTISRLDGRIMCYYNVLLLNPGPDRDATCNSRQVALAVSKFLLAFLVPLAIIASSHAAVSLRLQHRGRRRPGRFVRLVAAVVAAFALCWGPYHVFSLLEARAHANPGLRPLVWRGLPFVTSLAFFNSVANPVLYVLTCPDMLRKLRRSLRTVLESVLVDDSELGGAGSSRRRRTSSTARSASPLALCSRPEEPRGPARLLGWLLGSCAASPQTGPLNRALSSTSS
# Assay: Determination of Ki (radioligand binding assay, equilibrium competition against [3H]PGD2)
# Set-up: expressed in transfected cells; host or cells: HEK293 (EBNA) cells, membrane preparation
# Details: average of at least three independent dose response experiments
# Procedure: The inhibitory activity can be investigated by a radioligand binding assay (Sawyer et al., Br. J. Pharmocol 2002, 137, 1163-72). The radioligand binding assay was performed at room temperature in binding buffer (10 mM HEPES/KOH pH […], with protease inhibitor cocktail tablets), containing 1.5 nM [^3H]PGD2 (Amersham, 156 Cie/mmol), and 10 μg of hCRTH2 HEK293 (EBNA) cell membrane protein in a final volume of 100 μl in 96 well plates (Corning, USA). Non-specific binding was determined in the presence of 1 μM PGD2 (Cayman, USA). Competing spiro-indolinones were diluted in dimethylsulphoxide so that the total volume of dimethylsulfoxide was kept constant at 1% dimethylsulphoxide (Me2SO) Serial dilutions of 100 μM and […] were prepared. 10 μl each of these spiro-indolinone stock solutions were added. Incubation (60 min at room temperature) was terminated by rapid filtration through 96 wells hydrophobic GF/C Unifilter plates (Whatman, USA). Filters were washed twice with 250 μl of Tris-HCl pH 7.4, 10 mM MnCl2, and residual radioligand bound to the filters was mixed to 100 μl of liquid scintillation cocktail (Optiphase Supermix, Perkin Elmer, USA) and binding activity was determined by counting residual radioligand using a 1450 Micro-beta scintillation counter (Wallac, UK). The following representative compounds were tested. All inhibited the binding of PGD2 to CRTH2 by more than 70%. • (1′-benzyl-5-chloro-2,2′,5′-trioxospiro[indole-3,3′-pyrrolidin]-1(2H)-yl)acetic acid • (1′-benzyl-5-fluoro-2,2′,5′-trioxospiro[indole-3,3′-pyrrolidin]-1(2H)-yl)acetic acid • 4-(1′-allyl-5-chloro-2,2′,5′-trioxospiro[indole-3,3′-pyrrolidin]-1(2H)-yl)butanoic acid • [5-chloro-1′-(2-methoxyethyl)-2,2′,5′-trioxospiro[indole-3,3′-pyrrolidin]-1(2H)-yl]acetic acid • 4-(1′-benzyl-5-chloro-2,2′,5′-trioxospiro[indole-3,3′-pyrrolidin]-1(2H)-yl)butanoic acid • (1′-benzyl-5-methoxy-2,2′,5′-trioxospiro[indole-3,3′-pyrrolidin]-1(2H)-yl)acetic acid • [5-fluoro-1′-[(2-methoxyethoxy)methyl]-2,2′,5′-trioxospiro[indole-3,3′-pyrrolidin]-1(2H)-yl]acetic acid • 4-(1′-allyl-5-fluoro-2,2′,5′-trioxospiro[indole-3,3′-pyrrolidin]-1(2H)-yl)butanoic acid • 4-(1′-benzyl-5-fluoro-2,2′,5′-trioxospiro[indole-3,3′-pyrrolidin]-1(2H)-yl)butanoic acid
# Ki values were determined by equilibrium competition binding experiments against [^3H]PGD2. Ki values were calculated from the formula below and represent the average of at least three independent dose response experiments. The Ki values give the ligand concentrations necessary to inhibit 50% of the binding of [^3H]PGD2 to CRTH2. Ki=IC50/(1+[Concentration of Ligand]/Kd)]
# All experiments were performed in 96 well plates, in a final volume of 100 μl according to the above described filtration assay. The concentration of membranes and 3 [H]PGD2, as well as the positive and negative controls were identical to the conditions described above.
row,Ki,SMILES
1,39 nM,"Cc1nc(CN2C(=O)CC3(C2=O)C(=O)N(CC(=O)O)c2ccc(Cl)cc23)cs1 (stereo not shown) [Compound 1, [5-chloro-1′-[(2-methyl-1,3-thiazol-4-yl)methyl]-2,2′,5′-trioxospiro[indole-3,3′-pyrrolidin]-1(2H)-yl]acetic acid]"
2,73 nM,"O=C(O)CN1C(=O)C2(CC(=O)N(Cc3cccc(Cl)c3)C2=O)c2cc(Cl)ccc21 (stereo not shown) [Compound 5, [5-chloro-1′-(3-chlorobenzyl)-2,2′,5′-trioxospiro[indole-3,3′-pyrrolidin]-1(2H)-yl]acetic acid]"
3,270 nM,"O=C(O)CN1C(=O)C2(CC(=O)N(Cc3ccc(C(F)(F)F)o3)C2=O)c2cc(Cl)ccc21 (stereo not shown) [Compound 18, [5-chloro-2,2′,5′-trioxo-1′-{[5-(trifluoromethyl)-2-furyl]methyl}spiro[indole-3,3′-pyrrolidin]-1(2H)-yl]acetic acid]"
4,24 nM,"O=C(O)CN1C(=O)C2(CC(=O)N(Cc3ccccc3F)C2=O)c2cc(Cl)ccc21 (stereo not shown) [Compound 104, [5-chloro-1′-(2-fluorobenzyl)-2,2′,5′-trioxospiro[indole-3,3′-pyrrolidin]-1(2H)-yl]acetic acid]"
5,510 nM,"COc1c(C)cnc(CN2C(=O)CC3(C2=O)C(=O)N(CC(=O)O)c2ccc(Cl)cc23)c1C (stereo not shown) [Compound 75, [5-chloro-1′-[(4-methoxy-3,5-dimethylpyridin-2-yl)methyl]-2,2′,5′-trioxospiro[indole-3,3′-pyrrolidin]-1(2H)-yl]acetic acid]"
6,93 nM,"O=C(O)CN1C(=O)C2(CC(=O)N(Cc3ccc4ccccc4n3)C2=O)c2cc(Cl)ccc21 (stereo not shown) [Compound 3, [5-chloro-2,2′,5′-trioxo-1′-(quinolin-2-ylmethyl)spiro[indole-3,3′-pyrrolidin]-1(2H)-yl]acetic acid]"
7,8.4 nM,"O=C(O)CN1C(=O)[C@]2(CC(=O)N(Cc3ccccc3F)C2=O)c2cc(Cl)ccc21 [Compound 110, (3S)-[5-chloro-1′-(2-fluorobenzyl)-2,2′,5′-trioxospiro[indole-3,3′-pyrrolidin]-1(2H)-yl]acetic acid]"
8,89 nM,"N#Cc1ccc(CN2C(=O)CC3(C2=O)C(=O)N(CC(=O)O)c2ccc(Cl)cc23)cc1 (stereo not shown) [Compound 4, [5-chloro-1′-(4-cyanobenzyl)-2,2′,5′-trioxospiro[indole-3,3′-pyrrolidin]-1(2H)-yl]acetic acid]"
9,170 nM,"O=C(O)CN1C(=O)C2(CC(=O)N(Cc3ccccn3)C2=O)c2cc(Cl)ccc21 (stereo not shown) [Compound 17, [5-chloro-2,2′,5′-trioxo-1′-(pyridin-2-ylmethyl)spiro[indole-3,3′-pyrrolidin]-1(2H)-yl]acetic acid]"
10,213 nM,"O=C(O)CN1C(=O)C2(CC(=O)N(CC3COc4ccccc4O3)C2=O)c2cc(Cl)ccc21 (stereo not shown) [Compound 16, [5-chloro-1′-(2,3-dihydro-1,4-benzodioxin-2-ylmethyl)-2,2′,5′-trioxospiro[indole-3,3′-pyrrolidin]-1(2H)-yl]acetic acid]"
11,1820 nM,"Cn1ccnc1CN1C(=O)CC2(C1=O)C(=O)N(CC(=O)O)c1ccc(Cl)cc12 (stereo not shown) [Compound 32, [5-chloro-1′-[(1-methyl-1H-imidazol-2-yl)methyl]-2,2′,5′-trioxospiro[indole-3,3′-pyrrolidin]-1(2H)-yl]acetic acid]"
12,705 nM,"O=C(O)CN1C(=O)C2(CC(=O)N(Cc3cn4ccccc4n3)C2=O)c2cc(Cl)ccc21 (stereo not shown) [Compound 24, [5-chloro-1′-(imidazo[1,2-a]pyridin-2-ylmethyl)-2,2′,5′-trioxospiro[indole-3,3′-pyrrolidin]-1(2H)-yl]acetic acid]"
13,6 nM,"O=C(O)CN1C(=O)C2(CC(=O)N(Cc3csc(-c4cccc(Cl)c4)n3)C2=O)c2cc(Cl)ccc21 (stereo not shown) [Compound 103, [5-chloro-1′-{[2-(3-chlorophenyl)-1,3-thiazol-4-yl]methyl}-2,2′,5′-trioxospiro[indole-3,3′-pyrrolidin]-1(2H)-yl]acetic acid]"
14,1130 nM,"O=C(O)CN1C(=O)C2(CC(=O)N(CCOCc3ccccc3)C2=O)c2cc(Cl)ccc21 (stereo not shown) [Compound 29, [1′-[2-(benzyloxy)ethyl]-5-chloro-2,2′,5′-trioxospiro[indole-3,3′-pyrrolidin]-1(2H)-yl]acetic acid]"
15,12 nM,"O=C(O)CN1C(=O)C2(CC(=O)N(Cc3cnc(Cl)cc3Cl)C2=O)c2cc(Cl)ccc21 (stereo not shown) [Compound 76, [5-chloro-1′-[(4,6-dichloropyridin-3-yl)methyl]-2,2′,5′-trioxospiro[indole-3,3′-pyrrolidin]-1(2H)-yl]acetic acid]"
16,1120 nM,"Cc1onc(-c2ccccc2)c1CN1C(=O)NC2(C1=O)C(=O)N(CC(=O)O)c1ccc(Cl)cc12 (stereo not shown) [Compound 106, [5′-chloro-1-[(5-methyl-3-phenylisoxazol-4-yl)methyl]-2,2′,5-trioxospiro[imidazolidine-4,3′-indol]-1′(2′H)-yl]acetic acid]"
17,267 nM,"O=C(O)CN1C(=O)C2(CC(=O)N(CCc3ccccc3)C2=O)c2cc(Cl)ccc21 (stereo not shown) [Compound 23, [5-chloro-2,2′,5′-trioxo-1′-(2-phenylethyl)spiro[indole-3,3′-pyrrolidin]-1(2H)-yl]acetic acid]"
18,681 nM,"O=C(O)CCCN1C(=O)C2(CC(=O)N(Cc3ccc(C(F)(F)F)cc3)C2=O)c2cc(Cl)ccc21 (stereo not shown) [Compound 35, 4-[5-chloro-2,2′,5′-trioxo-1′-[4-(trifluoromethyl)benzyl]spiro[indole-3,3′-pyrrolidin]-1(2H)-yl]butanoic acid]"
19,153 nM,"COc1ccccc1CN1C(=O)CC2(C1=O)C(=O)N(CC(=O)O)c1ccc(Cl)cc12 (stereo not shown) [Compound 54, [5-chloro-1′-(2-methoxybenzyl)-2,2′,5′-trioxospiro[indole-3,3′-pyrrolidin]-1(2H)-yl]acetic acid]"
20,768 nM,"O=C(O)CN1C(=O)C2(CC(=O)N(C/C=C/c3ccccc3)C2=O)c2cc(Cl)ccc21 (stereo not shown) [Compound 25, [5-chloro-2,2′,5′-trioxo-1′-[(2E)-3-phenylprop-2-en-1-yl]spiro[indole-3,3′-pyrrolidin]-1(2H)-yl]acetic acid]"
21,100 nM,"O=C(O)CN1C(=O)C2(CC(=O)N(Cc3ccc(Cl)c(Cl)c3)C2=O)c2cc(Cl)ccc21 (stereo not shown) [Compound 6, [5-chloro-1′-(3,4-dichlorobenzyl)-2,2′,5′-trioxospiro[indole-3,3′-pyrrolidin]-1(2H)-yl]acetic acid]"
22,300 nM,"O=C(O)CN1C(=O)C2(NC(=O)N(Cc3ccccc3)C2=O)c2cc(Cl)ccc21 (stereo not shown) [Compound 107, (1-benzyl-5′-chloro-2,2′,5-trioxospiro[imidazolidine-4,3′-indol]-1′(2′H)-yl)acetic acid]"
23,101 nM,"COc1ccnc(CN2C(=O)CC3(C2=O)C(=O)N(CC(=O)O)c2ccc(Cl)cc23)c1OC (stereo not shown) [Compound 78, [5-chloro-1′-[(3,4-dimethoxypyridin-2-yl)methyl]-2,2′,5′-trioxospiro[indole-3,3′-pyrrolidin]-1(2H)-yl]acetic acid]"
24,75 nM,"O=C(O)CN1C(=O)C2(CC(=O)N(Cc3cccs3)C2=O)c2cc(Cl)ccc21 (stereo not shown) [Compound 77, [5-chloro-2,2′,5′-trioxo-1′-(2-thienylmethyl)spiro[indole-3,3′-pyrrolidin]-1(2H)-yl]acetic acid]"

row,SMILES,Ki
1,"O=C(O)CN1C(=O)C2(NC(=O)N(Cc3ccccc3F)C2=O)c2cc(Cl)ccc21 (stereo not shown) [Compound 108, [5′-chloro-1-(2-fluorobenzyl)-2,2′,5-trioxospiro[imidazolidine-4,3′-indol]-1′(2′H)-yl]acetic acid]",4.8 nM
